A word on the EC50: it is the concentration that produces a half-maximal response.

In the assay the target is T1, human GPBAR1 receptor (Homo sapiens, UniProt Q8TDU6).
T1 construct: expressed in transfected cells
T1 sequence (Q8TDU6 1-330): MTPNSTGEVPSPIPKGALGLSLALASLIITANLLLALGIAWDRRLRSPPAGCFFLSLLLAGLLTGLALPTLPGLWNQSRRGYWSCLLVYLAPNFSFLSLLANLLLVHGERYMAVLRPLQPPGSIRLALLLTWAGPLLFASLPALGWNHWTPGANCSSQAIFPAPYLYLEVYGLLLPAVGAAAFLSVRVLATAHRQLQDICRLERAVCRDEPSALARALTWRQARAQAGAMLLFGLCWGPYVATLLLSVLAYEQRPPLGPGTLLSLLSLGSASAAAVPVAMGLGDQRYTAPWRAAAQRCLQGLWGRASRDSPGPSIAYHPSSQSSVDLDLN
Nature of the assay: functional cAMP assay in CHO-dhfr(minus) cells expressing human GPBAR1 receptors. It is filed as cell-based. The settings on record: cAMP increase (TR-FRET) in CHO-dhfr(minus) cells expressing human GPBAR1; compounds incubated 30 min at 30° C. On the procedure: The final clone was verified by DNA sequence analysis. The plasmid was transfected into CHO cells deficient in dihydrofolate reductase activity (CHO-dhfr-) using Lipofectamine plus (Invitrogen). Clones were isolated in limited dilution conditions and identified by activities in the cAMP assay using lithocholic acid as agonist.
The growth medium was exchanged with Krebs Ringer Bicarbonate buffer with 1 mM IBMX and incubated at 30° C. for 30 mM. Compounds were added to a final assay volume of 100 μl and incubated for 30 min at 30° C. […] The time-resolved energy transfer is measured by a TRF reader (Evotec Technologies GmbH, Hamburg Germany), equipped with a ND:YAG laser as excitation source. The plate is measured twice with the excitation at 355 nm and at the emission with a delay of 100 ns and a gate of 100 ns, total exposure time 10s at 730 (bandwith 30 nm) or 645 nm (bandwith 75 nm), respectively.
EC50 values were determined using Activity Base analysis (ID Business Solution, Limited). […] Specificity for GPBAR1 was tested in non-transfected CHO cells in the same assay as above.
Background: Cyclic AMP is a second messenger, typically raised through Gs and lowered through Gi signalling.
`Cc1cccc(Oc2ncccc2C(=O)N2CCCc3ccccc32)c1` [Example 8, (3,4-Dihydro-2H-quinolin-1-yl)-(2-m-tolyloxy-pyridin-3-yl)-methanone] showed an EC50 of 644 nM. This lies in the sub-micromolar range.

Consider `O=C(O)CNC(=O)CCc1cc(Cl)c(Oc2ncccc2C(=O)N2CCN(C3CC3)c3ccccc32)cc1Cl` [Example 177, (3-{2,5-Dichloro-4-[3-(4-cyclopropyl-3,4-dihydro-2H-quinoxaline-1-carbonyl)-pyridin-2-yloxy]-phenyl}-propionylamino)-acetic acid], for which a half-maximal response (EC50) required 63 nM. Compound `Cc1ccccc1N(C)C(=O)c1ccncc1Oc1ccc(Cl)cc1Cl` [Example 99, 3-(2,4-Dichloro-phenoxy)-N-methyl-N-o-tolyl-isonicotinamide] gave a concentration giving a half-maximal response (EC50) of 388 nM. With `O=C(c1cccnc1Oc1cc(Cl)ccc1Cl)N1CCCc2cc(F)cc(F)c21` [Example 44, [2-(2,5-Dichloro-phenoxy)-pyridin-3-yl]-(6,8-difluoro-3,4-dihydro-2H-quinolin-1-yl)-methanone], the EC50 came out at 44 nM. `COC(=O)c1cc(Cl)c(Oc2ncccc2C(=O)N2CCN(C3CC3)c3ccccc32)cc1Cl` [Example 182, 2,5-Dichloro-4-[3-(4-cyclopropyl-3,4-dihydro-2H-quinoxaline-1-carbonyl)-pyridin-2-yloxy]-benzoic acid methyl ester] displayed an EC50 of 181 nM.

Take `CCOC(=O)CN1CCN(C(=O)c2cccnc2Oc2cc(Cl)ccc2Cl)c2ccccc21` [Example 141, {4-[2-(2,5-Dichloro-phenoxy)-pyridine-3-carbonyl]-3,4-dihydro-2H-quinoxalin-1-yl}-acetic acid ethyl ester]: it took 324 nM to reach a half-maximal effect (EC50).

For the compound `Cc1ccc(N(C)C(=O)c2cccnc2Oc2cc(Cl)ccc2Cl)c(C)c1` [Example 58, 2-(2,5-Dichloro-phenoxy)-N-(2,4-dimethyl-phenyl)-N-methyl-nicotinamide], the 50% effective concentration (EC50) stood at 758 nM. The result for `O=C(c1cc(F)cnc1Oc1cc(Cl)ccc1Cl)N1CCNc2ccccc21` [Example 147, [2-(2,5-Dichloro-phenoxy)-5-fluoro-pyridin-3-yl]-(3,4-dihydro-2H-quinoxalin-1-yl)-methanone] reads 15 nM; that for `O=C(c1ccncc1Oc1ccc(F)c(Cl)c1)N1CCCc2ccc(F)cc21` [Example 103, [3-(3-Chloro-4-fluoro-phenoxy)-pyridin-4-yl]-(7-fluoro-3,4-dihydro-2H-quinolin-1-yl)-methanone], 299 nM. With `O=C(c1ccncc1Oc1cc(Cl)ccc1Cl)N1CCCc2cc(F)cc(F)c21` [Example 92, [3-(2,5-Dichloro-phenoxy)-pyridin-4-yl]-(6,8-difluoro-3,4-dihydro-2H-quinolin-1-yl)-methanone], it took 7 nM to reach a half-maximal effect (EC50).

`O=C(c1cccnc1Oc1cc(Cl)ccc1Cl)N1CCN(c2ccccc2)c2ccccc21` [Example 74, [2-(2,5-Dichloro-phenoxy)-pyridin-3-yl]-(4-phenyl-3,4-dihydro-2H-quinoxalin-1-yl)-methanone] registered an EC50 of 1530 nM. This EC50 lies about 220-fold higher than the previous one.

In turn, `CC(C)N1CCN(C(=O)c2cccnc2Oc2cc(Cl)ccc2Cl)c2ccccc21` [Example 124, [2-(2,5-Dichloro-phenoxy)-pyridin-3-yl]-(4-isopropyl-3,4-dihydro-2H-quinoxalin-1-yl)-methanone] had an EC50 of 607 nM.

Turning to `O=C(O)C/C=C/c1cc(Cl)c(Oc2ncccc2C(=O)N2CCN(C3CC3)c3ccccc32)cc1Cl` [Example 175, 4-{2,5-Dichloro-4-[3-(4-cyclopropyl-3,4-dihydro-2H-quinoxaline-1-carbonyl)-pyridin-2-yloxyl]-phenyl}-but-3-enoic acid], it took 843 nM to reach a half-maximal effect (EC50). The EC50 values of the last two compounds are within 1.5-fold of each other.

`O=C(O)CCNC(=O)CCCc1cc(Cl)c(Oc2ncccc2C(=O)N2CCN(C3CC3)c3ccccc32)cc1Cl` [Example 181, 3-(4-{2,5-Dichloro-4-[3-(4-cyclopropyl-3,4-dihydro-2H-quinoxaline-1-carbonyl)-pyridin-2-yloxy]-phenyl}-butyrylamino)-propionic acid] had a concentration giving a half-maximal response (EC50) of 91 nM. Against the preceding compound, the EC50 is about 9.3-fold lower.

The compound `COC(=O)C/C=C/c1cc(Cl)c(Oc2ncccc2C(=O)N2CCN(C3CC3)c3ccccc32)cc1Cl` [Example 174, 4-{2,5-Dichloro-4-[3-(4-cyclopropyl-3,4-dihydro-2H-quinoxaline-1-carbonyl)-pyridin-2-yloxy]-phenyl}-but-3-enoic acid methyl ester] yielded an EC50 of 29 nM.

In the case of `O=C(c1cc(F)cnc1Oc1cc(F)ccc1F)N1CCCc2ccccc21` [Example 26, [2-(2,5-Difluoro-phenoxy)-5-fluoro-pyridin-3-yl]-(3,4-dihydro-2H-quinolin-1-yl)-methanone], it took 106 nM to reach a half-maximal effect (EC50). Then `O=C(c1cccnc1Oc1cc(Cl)ccc1Cl)N1CCN(C2CCC2)c2ccccc21` [Example 126, (4-Cyclobutyl-3,4-dihydro-2H-quinoxalin-1-yl)-[2-(2,5-dichloro-phenoxy)-pyridin-3-yl]-methanone], with 10 nM.

Consider `N#Cc1cccc(Oc2ncccc2C(=O)N2CCCc3ccccc32)c1` [Example 7, 3-[3-(3,4-Dihydro-2H-quinoline-1-carbonyl)-pyridin-2-yloxy]-benzonitrile], for which a half-maximal response (EC50) required 575 nM. As for `O=C(c1cccnc1Oc1cc(Cl)ccc1Cl)N1CC2CCCN2c2ccccc21` (centres unmarked) [Example 136, [2-(2,5-Dichloro-phenoxy)-pyridin-3-yl]-(2,3,3a,4-tetrahydro-1H-pyrrolo[1,2-a]quinoxalin-5-yl)-methanone], the EC50 was found to be 246 nM. Take `Cc1ccc2c(c1)CCCN2C(=O)c1cccnc1Oc1cc(Cl)ccc1Cl` [Example 31, [2-(2,5-Dichloro-phenoxy)-pyridin-3-yl]-(6-methyl-3,4-dihydro-2H-quinolin-1-yl)-methanone]: a half-maximal effect (EC50) was put at 138 nM.

As for `Cc1cccc2c1N(C(=O)c1cc(F)ccc1Oc1cc(Cl)ccc1Cl)CCC2` [Example 115, [2-(2,5-Dichloro-phenoxy)-5-fluoro-phenyl]-(8-methyl-3,4-dihydro-2H-quinolin-1-yl)-methanone], the midpoint of the response, the EC50, lay at 920 nM. On to `COc1ccc(Cl)cc1N(C)C(=O)c1cccnc1Oc1cc(Cl)ccc1Cl` [Example 55, N-(5-Chloro-2-methoxy-phenyl)-2-(2,5-dichloro-phenoxy)-N-methyl-nicotinamide], for which the EC50 is 641 nM. The EC50 values of the last two compounds are within 1.5-fold of each other.

On to `C=C1CCN(C(=O)c2cccnc2Oc2cc(Cl)ccc2Cl)c2ccccc21` [Example 129, [2-(2,5-Dichloro-phenoxy)-pyridin-3-yl]-(4-methylene-3,4-dihydro-2H-quinolin-1-yl)-methanone], for which it took 24 nM to reach a half-maximal effect (EC50). Compared with the last compound, the EC50 is about 27-fold lower.

Consider `CN(C(=O)c1cc(F)ccc1Oc1cc(Cl)ccc1Cl)c1ccccc1` [Example 118, 2-(2,5-Dichloro-phenoxy)-5-fluoro-N-methyl-N-phenyl-benzamide], for which the half-maximal effective concentration (EC50) is 771 nM. Then `O=C(c1cccnc1Oc1ccc(F)c(Cl)c1)N1CCCc2ccccc21` [Example 10, [2-(3-Chloro-4-fluoro-phenoxy)-pyridin-3-yl]-(3,4-dihydro-2H-quinolin-1-yl)-methanone], with 53 nM; and `CCOC(=O)CN1CCN(C(=O)c2cc(F)cnc2Oc2cc(Cl)ccc2Cl)c2ccccc21` [Example 154, {4-[2-(2,5-Dichloro-phenoxy)-5-fluoro-pyridine-3-carbonyl]-3,4-dihydro-2H-quinoxalin-1-yl}-acetic acid ethyl ester], with 53 nM; and `O=C(O)CCCCCN1CCN(C(=O)c2cc(F)cnc2Oc2cc(Cl)ccc2Cl)c2ccccc21` [Example 161, 6-{4-[2-(2,5-Dichloro-phenoxy)-5-fluoro-pyridine-3-carbonyl]-3,4-dihydro-2H-quinoxalin-1-yl}-hexanoic acid], with 104 nM. Turning to `O=C(c1cccnc1Oc1ccc(Cl)cc1Cl)N1CCCc2ccccc21` [Example 76, [2-(2,4-Dichloro-phenoxy)-pyridin-3-yl]-(3,4-dihydro-2H-quinolin-1-yl)-methanone], the response was half-maximal at 1960 nM (EC50).

For `O=C(c1ccccc1Oc1cc(Cl)ccc1Cl)N1CCCc2cc(F)c(F)cc21` [Example 111, [2-(2,5-Dichloro-phenoxy)-phenyl]-(6,7-difluoro-3,4-dihydro-2H-quinolin-1-yl)-methanone], it took 102 nM to reach a half-maximal effect (EC50). The result for `O=C(c1cccnc1Oc1cccc(F)c1)N1CCCc2ccccc21` [Example 18, (3,4-Dihydro-2H-quinolin-1-yl)-[2-(3-fluoro-phenoxy)-pyridin-3-yl]-methanone] reads 322 nM; that for `CCc1ccccc1N(C)C(=O)c1cccnc1Oc1cc(Cl)ccc1Cl` [Example 45, 2-(2,5-Dichloro-phenoxy)-N-(2-ethyl-phenyl)-N-methyl-nicotinamide], 92 nM. `O=C(c1cccnc1Oc1cc(Cl)ccc1Cl)N1CCC(N2CC(F)(F)C2)c2ccccc21` (centres unmarked) [Example 130, [2-(2,5-Dichloro-phenoxy)-pyridin-3-yl]-[4-(3,3-difluoro-azetidin-1-yl)-3,4-dihydro-2H-quinolin-1-yl]-methanone] yielded an EC50 of 1830 nM.

For the origin of these results see patent publication US8309734B2 (Hoffmann-La Roche Inc., priority 2008, dated 2012).
